# Measured values as given in US9907838B2, “Composition and methods for treating ischemic damage” (GEMVAX & KAEL CO., LTD., priority 2013, dated 2018).
# Tests used:
# [1] = test system: renal ischemic-reperfusion injury mouse model; assay: Renal failure markers (BUN and creatine) in renal ischemic-reperfusion injury mouse model; assay type: in vivo, C57BL/6 mouse; conditions: blood 24 hours after ischemic reperfusion; 1000 nmol/kg 30 minutes before and 12 hours after IR; compared to PBS control group
# Experimental: (§1) A renal ischemic-reperfusion injury mouse model was established by inducing ischemic reperfusion by bilaterally clamping renal pedicles for 30 minutes and restoring blood flow 30 minutes later by removing the clamps. Test groups were divided into an administered group (PEP 1), a control group (PBS without PEP 1), and a sham group (no bilateral clamping). PEP 1 was […] injected at a concentration of 1000 nmol/kg 30 minutes before and 12 hours after the induction of ischemic reperfusion.
# (§2) C57BL/6 mouse (8 weeks old; Charles River Laboratories, Wilmington, Mass.) was used to induce renal ischemic-reperfusion injury. After blocking blood flow by clamping the renal pedicles with vascular forceps and inducing ischemia for […], reperfusion was performed.
# The peptide PEP 1 was diluted in PBS to a concentration of 1000 nmol/kg and intraperitoneally (i.p.) injected twice 30 minutes before and 12 hours after the ischemic reperfusion. […]
# Blood was taken 24 hours after the ischemic reperfusion and the levels of blood urea nitrogen (BUN) and creatine as renal toxicity markers were measured. […] Then, proteins were extracted and the levels of cytokines were measured. The concentrations of creatine and BUN were measured using an autoanalyzer (Technicon RA-1000; Bayer, Tarrytown, N.Y.).
# [2] = test system: renal ischemic-reperfusion injury mouse model; assay: Inflammatory cytokine levels (IL-6, MCP-1, TNF-α) in renal tissue, renal ischemic-reperfusion injury mouse model; assay type: in vivo, C57BL/6 mouse; conditions: protein extracted from renal tissue 24 hours after ischemic reperfusion; 1000 nmol/kg twice; compared to PBS control group
# Experimental: as §1, §2
# (§3) The peptide PEP 1 was diluted in PBS to a concentration of 1000 nmol/kg and intraperitoneally (i.p.) injected twice 30 minutes before and 12 hours after the ischemic reperfusion. The test was conducted for the administered group (PEP 1), the control group (PBS), and the sham group (no ischemic reperfusion).
# Blood was taken 24 hours after the ischemic reperfusion and the levels of blood urea nitrogen (BUN) and creatine as renal toxicity markers were measured. Renal tissue was taken and prepared into paraffin blocks for immunohistochemical and histological studies. Then, proteins were extracted and the levels of cytokines were measured. The concentrations of creatine and BUN were measured using an autoanalyzer (Technicon RA-1000; Bayer, Tarrytown, N.Y.).
# Protein was extracted from renal tissue 24 hours after the ischemic reperfusion and the levels of IL-6, MCP-1 and TNF-α were measured according to the cytometric bead array method. Mouse IL-6, MCP-1, TNF-α ELISA kits were purchased from R&D Systems and the test was conducted according to the manufacturer's protocol.
# [3] = test system: renal ischemic-reperfusion injury mouse model; assay: Renal tissue injury scoring after PAS staining in renal ischemic-reperfusion injury mouse model; assay type: in vivo, C57BL/6 mouse; conditions: 24 hours after ischemic reperfusion; 1000 nmol/kg 30 minutes before and 12 hours after IR; compared to PBS control group
# Experimental: as §1, §2, §3
# Renal tissue was stained with periodic acid-Schiff (PAS) stain according to the protocol of the manufacturer (Polysciences, Inc., Warrington, Pa., USA) 24 hours after the ischemic reperfusion. After the staining, renal tissue injury was evaluated through renal tissue injury scoring.
# [4] = test system: renal ischemic-reperfusion injury mouse model; assay: Infiltration of innate immune cells (F4/80, Gr-1 staining) in renal tissue, renal ischemic-reperfusion injury mouse model; assay type: in vivo, C57BL/6 mouse; conditions: 24 hours after ischemic reperfusion; 1000 nmol/kg 30 minutes before and 12 hours after IR; compared to PBS control group
# Experimental: as §1, §2, §3
# Infiltration of innate immune cells was evaluated by immnohistologically staining renal tissue with F4/80 (macrophage maker) and Gr-1 (neutrophil maker) 24 hours after the ischemic reperfusion. […]
# [5] = test system: rat model of ischemic-reperfusion injury (abdominal skin flaps); assay: Flap survivability in rat skin flap model of ischemic-reperfusion injury; assay type: in vivo, Sprague-Dawley rats; conditions: 7 days after induction of ischemic reperfusion; 10 mg/500 μL intramuscularly 30 minutes before and 1, 2, 3, 4, 5 and 7 days after; PBS-treated group 34.69%±16.44%; p<0.05
# Experimental: A rat model of ischemic-reperfusion injury was established by acquiring 5 cm×5 cm skin flaps from the abdomen of Sprague-Dawley rats (weighing 180-230 g), administering PEP1 or saline, inducing local ischemia through clamping and then restoring blood flow 7 hours later by removing the clamps (see FIG. 11).
# Test groups were divided into an administered group (PEP 1), a control group (PBS without PEP 1), and a sham group (no ischemic-reperfusion injury induced). PEP 1 (10 mg/500 μL) or PBS (500 μL) was intramuscularly injected 30 minutes before and 1, 2, 3, 4, 5 and 7 days after the induction of ischemic reperfusion.
# Flap survivability was measured 7 days after the induction of ischemic reperfusion. The flap survival rate was measured through analysis of digital images using the imageJ program.
# [6] = test system: renal ischemic-reperfusion injury mouse model; assay: Renal apoptosis by TUNEL staining in renal ischemic-reperfusion injury mouse model; assay type: in vivo, C57BL/6 mouse; conditions: 24 hours after ischemic reperfusion; 1000 nmol/kg 30 minutes before and 12 hours after IR; compared to PBS control group
# Experimental: as §1, §2, §3
# Renal apoptosis was evaluated by staining renal tissue with TUNEL stain 24 hours after the ischemic reperfusion. Renal paraffin sections were stained with TUNEL using a TUNEL staining kit (Roche Applied Science, Indianapolis, Ind., USA).
sequence,measurement,setting,value
EARPALLTSRLRFIPK (listed as Homo sapiens) [PEP 1],blood urea nitrogen (BUN) level,[1],significantly decreased
same,creatine level,[1],significantly decreased
same,IL-6 level in renal tissue,[2],significantly decreased
same,MCP-1 level in renal tissue,[2],significantly decreased
same,TNF-α level in renal tissue,[2],no significant difference
same,"renal tissue injury (renal tissue injury scoring, PAS stain)",[3],remarkably decreased
same,infiltration of macrophages (F4/80) into renal tissue,[4],remarkably decreased
same,infiltration of neutrophils (Gr-1) into renal tissue,[4],remarkably decreased
same,flap survival rate,[5],58.88%±11.44%
same,TUNEL-positive cells in renal tissue,[6],remarkably decreased
